Assay results as given in ChEMBL document CHEMBL3507680, “University of Dundee, Gates Library screen for HepG2 cell viability”.

Test: Human HepG2 cell viability assay in 384 well format
Assay type: toxicity, cell-based
Parameters: dose 125 nL, time 70.5 hour; cytotoxicity at 70.5 h: concentration not given beside the values
Conditions: HepG2 cells, read-out: Inhibition

COc1ccccc1C1=NOC(CC2(C(=O)NC(C)C)CCOCC2)C1 (stereo not drawn)
cytotoxicity at 70.5 h: -4.53%

CC(C)CNC(=O)C1(Cc2ccccc2-c2cccs2)CCNC1 (stereo not drawn)
cytotoxicity at 70.5 h: -0.684%

COCCOCC(=O)N1C[C@@H]2CC[C@H](Oc3ccccc3F)[C@@H]2C1
cytotoxicity at 70.5 h: 12.1%

COCCOCC(=O)N1C[C@@H]2CC[C@H](Oc3cccc(F)c3)[C@@H]2C1
cytotoxicity at 70.5 h: -3.05%

CCOCC(=O)N1C[C@@H]2CC[C@H](Oc3ccccc3)[C@@H]2C1
cytotoxicity at 70.5 h: -3.41%

Nc1nccnc1C1CN(C(=O)c2cnccn2)CCO1 (stereo not drawn)
cytotoxicity at 70.5 h: -4.25%

O=C(N[C@@H]1CCC[C@@H](N2CCOCC2)[C@@H]1O)c1cnn2cccnc12
cytotoxicity at 70.5 h: -1.42%

Cc1noc(C)c1-c1ccc(C2CCCN2C(=O)c2cnn(C)c2)nc1 (stereo not drawn)
cytotoxicity at 70.5 h: -0.651%

Cc1nc2ccc(C(=O)N3C[C@@H](O)[C@H](N4CCN(C)CC4)C3)cc2[nH]1
cytotoxicity at 70.5 h: -4.75%

CC(=O)N1CCc2nc(C3CCN(C(=O)c4ccccc4)C3)ncc2C1 (stereo not drawn)
cytotoxicity at 70.5 h: 0.561%

COCCN1CCN(Cc2cnc(C(C)C)nc2)CC1
cytotoxicity at 70.5 h: 16.4%

CCc1ncc(CN2CCN(CCOC)CC2)cn1
cytotoxicity at 70.5 h: 7.17%

Cc1nc2ccc(C(=O)N3CC[C@H](O)[C@@H](N4CCOCC4)CC3)cc2[nH]1
cytotoxicity at 70.5 h: 0.0805%

CN(C(=O)c1ccon1)[C@@H]1CCC[C@@H](Oc2ccccc2)[C@@H]1O
cytotoxicity at 70.5 h: -1.37%

O[C@H]1CN(Cc2cccc(C(F)(F)F)c2)CC[C@@]12CCCO2
cytotoxicity at 70.5 h: 15.6%

CN1CCCC(c2ccnc(C(=O)NCC3CC3)c2)C1 (stereo not drawn)
cytotoxicity at 70.5 h: -2.35%

CS(=O)(=O)c1cn[nH]c1C1CCCCN1C(=O)Cc1cccnc1 (stereo not drawn)
cytotoxicity at 70.5 h: 5.76%

CNc1cncc(C2CCCN2S(=O)(=O)c2ccccc2F)n1 (stereo not drawn)
cytotoxicity at 70.5 h: -0.0855%

Cn1nccc1CCC(=O)N1CCOC(c2cnccn2)C1 (stereo not drawn)
cytotoxicity at 70.5 h: -12.6%

Fc1ccccc1OCCc1cc(C2CCNC2)n[nH]1 (stereo not drawn)
cytotoxicity at 70.5 h: -4.09%

Cc1ncc(CN2CCOC(c3ccc(-c4cnn(C)c4)cn3)C2)s1 (stereo not drawn)
cytotoxicity at 70.5 h: -6.63%

Cc1noc(C2(C)CCCN(C(=O)c3cccnc3)C2)n1 (stereo not drawn)
cytotoxicity at 70.5 h: 11.1%

O=C(CCc1cccnc1)N1CCC(c2cnccn2)CC1
cytotoxicity at 70.5 h: -6.11%

Cc1n[nH]c(C)c1-c1cnc(CC2CCCN(S(C)(=O)=O)C2)cn1 (stereo not drawn)
cytotoxicity at 70.5 h: -10.2%

Cc1cc(N2CC(c3n[nH]c4nccnc34)C2)ncn1
cytotoxicity at 70.5 h: -9.37%

CNC(=O)c1cn[nH]c1C1(C)CCCN(CC2(O)CCCCC2)C1 (stereo not drawn)
cytotoxicity at 70.5 h: -6.79%

Cc1c(C(=O)N2CCC(O)(CN(C)C)C2)c2ccccc2n1C (stereo not drawn)
cytotoxicity at 70.5 h: 11%

CCc1nnc(Nc2cccc(C3CCN(C)CC3)n2)s1
cytotoxicity at 70.5 h: 35%

c1cnc(C2CCCN2c2cnccn2)cn1 (stereo not drawn)
cytotoxicity at 70.5 h: 6.08%

CCc1nnc(Nc2cccc(C3CCN(C(C)=O)CC3)n2)s1
cytotoxicity at 70.5 h: 44.9%

CC(=O)N1CCCC1c1ccnc(Nc2cncnc2)n1 (stereo not drawn)
cytotoxicity at 70.5 h: -15.4%

Cc1nc(Nc2ncccn2)cc(C2CCCN2C(C)C)n1 (stereo not drawn)
cytotoxicity at 70.5 h: -14%

Cc1nc(Nc2cnccn2)cc(C2CCCN(C(C)C)C2)n1 (stereo not drawn)
cytotoxicity at 70.5 h: -8.23%

Cc1ccccc1S(=O)(=O)N1CCC(c2[nH]ncc2C)C1 (stereo not drawn)
cytotoxicity at 70.5 h: -8.88%

COC(=O)N1CCCN(Cn2nc(C)c(Br)c2C)CC1
cytotoxicity at 70.5 h: 31.2%

CCc1noc(CN2CCOC3(CCCC3)C2)n1
cytotoxicity at 70.5 h: -2.11%

COCCCNC(=O)CN(C)C(C)c1nc(C(C)C)no1 (stereo not drawn)
cytotoxicity at 70.5 h: -4.17%

CCC(=O)N1CCCN(Cn2nc(C)c(Br)c2C)CC1
cytotoxicity at 70.5 h: -0.667%

O=C(CSCCN1CCOCC1)N1CCc2ccccc2C1
cytotoxicity at 70.5 h: 17.6%

O=C(CSCCN1CCOCC1)N1CCCCCC1
cytotoxicity at 70.5 h: 29.9%

Cc1nc(CN2CCCC(C)(CO)C2)no1 (stereo not drawn)
cytotoxicity at 70.5 h: -4.42%

CC(=O)c1cc(Br)cc(F)c1OCC(=O)NC(C)C
cytotoxicity at 70.5 h: -4.15%

Cn1ccnc1S(=O)(=O)C(C(=O)N1CCCCC1)c1ccccc1 (stereo not drawn)
cytotoxicity at 70.5 h: 23.2%

Cc1nn(C)c(C)c1NC(=O)CN1CCOC(CN(C)C)C1 (stereo not drawn)
cytotoxicity at 70.5 h: 5.23%

Cc1cccc(-c2ccc(C(=O)N3CCN(C4CC4)CC3)c(=O)[nH]2)c1
cytotoxicity at 70.5 h: 22.8%

CC(=O)N1CCN(C(=O)c2ccc(-c3cccc(C)c3)[nH]c2=O)CC1
cytotoxicity at 70.5 h: -2.2%

COc1ccc(CN2CCC(C(N)=O)C2)c(Br)c1OC (stereo not drawn)
cytotoxicity at 70.5 h: 0.0817%

COc1ccccc1CC(C)CC(=O)O (stereo not drawn)
cytotoxicity at 70.5 h: -11.2%

CC(C)c1cc(NC(=O)CNC2CCc3nc(C(C)C)nn3C2)on1 (stereo not drawn)
cytotoxicity at 70.5 h: 4.46%

CS(=O)(=O)CCn1ccc(NC(=O)Cc2c[nH]c3ccccc23)n1
cytotoxicity at 70.5 h: 5.18%

O=S(=O)(CCc1ccccc1Cl)CC(O)CO (stereo not drawn)
cytotoxicity at 70.5 h: -0.491%

O=C(C(c1ccccc1)S(=O)(=O)c1ccccc1)N1CCCCC1 (stereo not drawn)
cytotoxicity at 70.5 h: 3.14%

O=S(=O)(Cc1cccc(F)c1)Nc1cc(Cl)ccn1
cytotoxicity at 70.5 h: 2.91%

O=C(NCc1ccon1)c1c(F)cc(Br)cc1F
cytotoxicity at 70.5 h: -3.14%

NC(=O)c1cn(CC2CC2)c(C2CC2)n1
cytotoxicity at 70.5 h: -7.32%

Cc1cccc(NC(=O)NC2CCC3(C2)OCCO3)c1Cl (stereo not drawn)
cytotoxicity at 70.5 h: -6.97%

Cn1ccnc1CNC1CCCOc2c1ccc1ccccc21 (stereo not drawn)
cytotoxicity at 70.5 h: -6.96%

O=S(=O)(N1CCCCCC1)N1CCCN(CC2CCCO2)CC1 (stereo not drawn)
cytotoxicity at 70.5 h: -1.63%

Cc1cc2ccccc2n1CC(=O)NC(C)C(=O)N1CCOCC1 (stereo not drawn)
cytotoxicity at 70.5 h: -8.04%

O=C(Nc1ccccc1-c1ccccc1)NC1CCC2(C1)OCCO2 (stereo not drawn)
cytotoxicity at 70.5 h: 27.5%

CCOC(C)c1nccn1Cc1c(C)noc1C (stereo not drawn)
cytotoxicity at 70.5 h: -2.96%

Cc1csc(CNc2cnc3c(c2)c(C)nn3C)n1
cytotoxicity at 70.5 h: 12.8%

CC(C)(C)c1cnc(CN2CCCS2(=O)=O)o1
cytotoxicity at 70.5 h: -1.12%

Cc1ccc(OCc2cccc(C(=O)N(C)CCC#N)c2)cn1
cytotoxicity at 70.5 h: 0.941%

CC(=O)C(Cc1ccccc1)NC(=O)CSc1nncn1C (stereo not drawn)
cytotoxicity at 70.5 h: -5.49%

COCCN(Cc1coc(-c2cccc(Cl)c2)n1)C1CC1
cytotoxicity at 70.5 h: -4.43%

Cc1cc(N(Cc2ccccc2F)C2CC2)n2nc(C(F)(F)F)nc2n1
cytotoxicity at 70.5 h: -1.77%

CN(C)C(=O)Cc1ccccc1NCc1nc(Cc2ccccc2)no1
cytotoxicity at 70.5 h: -0.0229%

Cc1noc(CNc2ccccc2CC(=O)N(C)C)n1
cytotoxicity at 70.5 h: -4.56%

Cc1[nH]ncc1CCCNC(=O)N1CCC(C(N)=O)CC1
cytotoxicity at 70.5 h: -4.17%

Fc1cccc2c1CCC2NCc1cnc(N2CCOCC2)nc1 (stereo not drawn)
cytotoxicity at 70.5 h: -1.25%

CC(NCCn1cccn1)c1ccccc1F (stereo not drawn)
cytotoxicity at 70.5 h: -0.726%

CC(C)Cc1noc(CNc2ccccc2CC(=O)N(C)C)n1
cytotoxicity at 70.5 h: -3.15%

COCCN(Cc1coc(-c2ccc(OC)cc2)n1)C1CC1
cytotoxicity at 70.5 h: -1.17%

O=C(CSCc1ccncc1)NCC1CCN(C2CC2)C1 (stereo not drawn)
cytotoxicity at 70.5 h: 1.83%

CC(C)c1cnc(CN2CCCS2(=O)=O)o1
cytotoxicity at 70.5 h: -1.78%

CCC(O)(CNCc1ncc[nH]1)c1ccc(Br)cc1 (stereo not drawn)
cytotoxicity at 70.5 h: -1.16%

CCc1ccc(C(=O)N2CCCC(c3nn[nH]n3)C2)cc1 (stereo not drawn)
cytotoxicity at 70.5 h: -3.67%

CCCc1n[nH]c(C2CN(CCNC3CCCCC3)CCO2)n1 (stereo not drawn)
cytotoxicity at 70.5 h: 9.34%

Cc1ncsc1C(=O)NCC1SCCc2ccccc21 (stereo not drawn)
cytotoxicity at 70.5 h: 6.22%

Cc1cc(CN(C)C(=O)Nc2cnc3c(c2)c(C)nn3C)no1
cytotoxicity at 70.5 h: -8.11%

CC(C)N(C)C(=O)C1CSCN1S(=O)(=O)c1cc(Cl)ccc1Cl (stereo not drawn)
cytotoxicity at 70.5 h: 11.9%

CC(C)(C)OC(=O)NCC1CCN(C(=O)c2cc(Cl)c[nH]2)CC1
cytotoxicity at 70.5 h: -14.2%

CC(C)N(C)C(=O)C1CSCN1S(=O)(=O)c1cccs1 (stereo not drawn)
cytotoxicity at 70.5 h: -8.56%

COc1ccccc1CC1CCCN(C(=O)c2cc[nH]n2)C1 (stereo not drawn)
cytotoxicity at 70.5 h: -6.57%

O=C(O)CCCc1ccc2c(c1)CC(=O)N2
cytotoxicity at 70.5 h: -9.78%

CC1CCCCN1S(=O)(=O)NCCN/C(O)=C1/N=CC=CC1=O (stereo not drawn)
cytotoxicity at 70.5 h: -5.82%

CC(NC(=O)NCCC(=O)OC(C)(C)C)c1nncn1C (stereo not drawn)
cytotoxicity at 70.5 h: -0.412%

CC(C(=O)Nc1cccc(Cl)c1SC(F)F)S(C)(=O)=O (stereo not drawn)
cytotoxicity at 70.5 h: -3.11%

CC(C(=O)Nc1ccccc1Sc1ccccc1)S(C)(=O)=O (stereo not drawn)
cytotoxicity at 70.5 h: -3.46%

CC(CNC(=O)c1ccncc1F)Oc1ccc(F)cc1 (stereo not drawn)
cytotoxicity at 70.5 h: -0.61%

COCCC1(CNC(=O)Nc2ccc(-n3nccn3)cc2)CCC1
cytotoxicity at 70.5 h: 13.3%

OC1(CNCc2cnc(N3CCOCC3)nc2)CCCCC1
cytotoxicity at 70.5 h: -5.66%

COCCC1(CNC(=O)Nc2ccc(-n3cccn3)cc2)CCC1
cytotoxicity at 70.5 h: 2.32%

CC(C)S(=O)(=O)CCN1CCc2c(ncn2C2CC2)C1
cytotoxicity at 70.5 h: 3.39%

O=C(O)CC(NC(=O)CCCc1cccs1)c1ccc(F)cc1 (stereo not drawn)
cytotoxicity at 70.5 h: -2.27%

COc1ccc(CN(Cc2cc(C)no2)C2CC2)cc1
cytotoxicity at 70.5 h: 0.248%

CN1CCOC(CNCCCOc2ccc(C#N)cc2)C1 (stereo not drawn)
cytotoxicity at 70.5 h: -5.34%

Cc1cccc(N2CCN(CCS(=O)(=O)c3ccc(Br)cc3)CC2)c1C
cytotoxicity at 70.5 h: -9.15%

Cc1ccccc1N1CCN(CCS(=O)(=O)c2ccc(Br)cc2)CC1
cytotoxicity at 70.5 h: 16%

O=S(=O)(CCN1CCN(c2ccccc2O)CC1)c1ccc(Br)cc1
cytotoxicity at 70.5 h: -8.18%

Cc1nc(-c2nnc[nH]2)sc1C(=O)N1CCCC1c1cccs1 (stereo not drawn)
cytotoxicity at 70.5 h: -6.5%

COC(=O)Cn1ccc(NS(=O)(=O)c2ccc3c(c2)CCC3)n1
cytotoxicity at 70.5 h: 17%

Cc1nc(-c2nnc[nH]2)sc1C(=O)N1CCCC1c1ccsc1 (stereo not drawn)
cytotoxicity at 70.5 h: -5.22%

Cc1nc(-c2nnc[nH]2)sc1C(=O)N1CCCC(C(F)(F)F)C1 (stereo not drawn)
cytotoxicity at 70.5 h: -4.51%

Cc1noc(CCNC(=O)NCc2ccc(N3CCCCC3)cc2)n1
cytotoxicity at 70.5 h: -5.09%

Cc1noc(CCNC(=O)NCc2ccc(OC3CCCC3)cc2)n1
cytotoxicity at 70.5 h: 0.994%

Cc1nc(-c2nnc[nH]2)sc1C(=O)N1CCCC1Cn1cccn1 (stereo not drawn)
cytotoxicity at 70.5 h: -3.3%

O=C(Cc1csc(-c2ccoc2)n1)NCCCN1CCCCC1
cytotoxicity at 70.5 h: -5.46%

O=C(Cc1csc(-c2ccoc2)n1)NCCC(=O)N1CCCCC1
cytotoxicity at 70.5 h: -2.09%

CC(C)c1csc(NC(=O)NC2CCCN(c3cnn(C)c3)C2)n1 (stereo not drawn)
cytotoxicity at 70.5 h: -7.46%

O=C(NCCOc1ccc(Cl)cn1)Nc1nccs1
cytotoxicity at 70.5 h: 11%

c1nc(-c2nc(C3CCOC3)no2)cs1 (stereo not drawn)
cytotoxicity at 70.5 h: -1.71%

N#Cc1csc(CNCCOc2ccccc2)c1
cytotoxicity at 70.5 h: 0.519%

CN1CCN(C(=O)c2cc(C#N)cs2)c2ccccc2C1
cytotoxicity at 70.5 h: -0.662%

CC1CN(C)c2ccccc2CN1C(=O)c1cc(C#N)cn1C (stereo not drawn)
cytotoxicity at 70.5 h: 14.8%

COc1cccc(C(=O)N2CCc3nc(C4CCCN4)ncc3C2)c1 (stereo not drawn)
cytotoxicity at 70.5 h: -1.65%

FC(F)Oc1ccc(CNCc2cc(Cl)c3c(c2)OCO3)cc1
cytotoxicity at 70.5 h: -5.5%
